Legend:
EP4 receptor [1] = target: T1, EP4 receptor (Homo sapiens, UniProt P35408); conditions: as taught by Patent Document 1 (WO2016/111347); cited from earlier work
[2] = test system: mouse glioma cell line GL261 orthotopic-graft; assay: Survival in mouse glioma cell line GL261 orthotopic-graft model; assay type: in vivo, immunocompetent syngeneic C57BL/6 mice; conditions: Compound A 3 mg/kg oral twice a day
Procedure: Effects of Combination of Compound A and an Anti-Mouse PD-1 Antibody in Mouse Glioma Cell Line GL261 Orthotopic-Graft Models Using Immunocompetent Syngeneic C57BL/6 Mice
The effect of a combination of Compound A and an anti-mouse PD-1 antibody (4H2, see WO2006/121168) was evaluated in mouse glioma cell line GL261 orthotopic-graft models using immunocompetent syngeneic C57BL/6 mice. GL261 was cultured in a CO2 incubator using an RPMI medium (Mediatech, Inc.) containing 10 vol % of FBS, 100 units/mL of penicillin, and 100 μg/mL of streptomycin. On the day of transplant, GL261 was harvested after removing the culture supernatant, and washing the cells with PBS. The harvested GL261 cells were suspended in PBS to obtain transplant cells. The transplant cells (5×10^4) were then transplanted to the brain of female C57BL/6J mice (The Jackson Laboratory) under anesthesia.
After 5 days from transplant, the mice were divided into 4 groups: a vehicle group, a Compound A single group, an anti-mouse PD-1 antibody single group, and a combination group (Compound A and the anti-mouse PD-1 antibody). Each group included 10 mice. […] The general condition of the mice was observed once a day from the day following the day of transplant of GL261, and scored according to the following table. Thus, the survival rate of the mice was evaluated.

EP4 receptor [3] = target: T1, EP4 receptor; conditions: as taught by Patent Document 1 (WO2016/111347); cited from earlier work; remark: listed apart in the source

T1 sequence (P35408 whole entry): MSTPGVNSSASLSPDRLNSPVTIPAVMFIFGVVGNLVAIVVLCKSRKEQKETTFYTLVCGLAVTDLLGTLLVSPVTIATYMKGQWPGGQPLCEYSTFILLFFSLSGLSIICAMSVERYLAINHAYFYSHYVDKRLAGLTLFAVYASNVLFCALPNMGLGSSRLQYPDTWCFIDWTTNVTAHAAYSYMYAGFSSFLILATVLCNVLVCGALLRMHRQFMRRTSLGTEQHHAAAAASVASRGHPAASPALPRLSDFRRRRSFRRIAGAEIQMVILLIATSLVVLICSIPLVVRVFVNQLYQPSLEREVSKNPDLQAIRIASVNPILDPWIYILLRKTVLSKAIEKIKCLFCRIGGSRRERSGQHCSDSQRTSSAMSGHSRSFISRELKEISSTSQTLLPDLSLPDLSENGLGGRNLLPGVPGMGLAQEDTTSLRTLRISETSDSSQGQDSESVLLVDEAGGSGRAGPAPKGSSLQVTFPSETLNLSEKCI

## CC(C)NC(=O)c1ccc2c(c1)[C@]1(CCO2)C[C@H]1C(=O)Nc1cc(C#N)ccc1CCCC(=O)O [Compound A, 4-[4-cyano-2-({[(2′R,4S)-6-(isopropylcarbamoyl)-2,3-dihydrospiro[chromene-4,1′-cyclopropan]-2′-yl]carbonyl}amino)phenyl]butanoic acid]
EP4 receptor [1]
  binding to EP4 receptor: strongly binds
[2]; GL261 orthotopic graft
  survival time compared with vehicle administration group: longer than that of the vehicle administration group
[2]; GL261 transplanted to brain of female C57BL/6J mice, days 5-70 from transplant, 10 mice per group
  day after which all the mice had died: 42 days
EP4 receptor [3]
  activity at EP4 receptor: antagonistic activity
